Results: article PMC9127371, “Assembly of nuclear dimers of PI3K regulatory subunits is regulated by the Cdc42-activated tyrosine kinase ACK” (The Journal of Biological Chemistry, 2022)

Key:
Assay type in all cases: cell-based
[1] = system: HEK293T cells expressing WT p85β; assay: Proliferation of HEK293T cells stably expressing WT p85β; conditions: AIM-100 8 μM; DMEM + 10% FBS; 1 μg/ml doxycycline; live cell counts, fold change over 24 h; three independent experiments
Method: (§1) Figure 4 Proliferation of HEK293T cells expressing ACK and p85β variants.A, proliferation of HEK293T cells stably expressing wtACK and caACK in 1% FBS. HEK293T cells stably expressing empty vector (control) or HA-tagged wtACK or caACK were seeded at a density of 3 × 10^4 cells per well. Cells were plated in replicates of three, and live cell counts were obtained at the times indicated. Data are plotted as fold change over t = 0 (seeding density). Data from three independent experiments are shown. Error bars represent SD. […] GAPDH is included as a loading control. Data are represented on the right in a bar chart with group significance testing performed by a two-way ANOVA; ∗p <0.05; ∗∗p < 0.01. B, proliferation of HEK293T cells stably expressing empty vector (control), WT p85β, or Y599F p85β. HEK293T cells stably expressing inducible FLAG-tagged WT p85β or p85β Y599F were seeded at a density of 3 × 10^4 cells per well and incubated at 37 °C for 16 h. All cells were then treated with 1 μg/ml doxycycline and incubated at 37 °C for the times indicated before live cell counts were taken. Data are plotted as fold change over the cell count at 24 h post doxycycline treatment. […]
(§2) Matched cell lines were chosen that had similar expression levels of the transgene. […] Cells were trypsinized and dispersed using a syringe before being counted using a Countess automated cell counter at specific timepoints. […]

[2] = system: HEK293T cells expressing Y599F p85β; assay: Proliferation of HEK293T cells stably expressing Y599F p85β; conditions: AIM-100 8 μM; DMEM + 10% FBS; 1 μg/ml doxycycline; live cell counts, fold change over 24 h; three independent experiments
Method: as §1, §2

pTyr284 ACK = assay: Active ACK level (pTyr284 ACK Western blot) in HEK293T cells; conditions: AIM-100 8 μM; HEK293T cells expressing ACK and WT p85α; Western blot of whole cell lysate
Method: Figure 7 Subcellular localization of the ACK–p85α complex. ACK and WT p85α were expressed alone and together in HEK293T cells. Where indicated, cells were treated with 8 μM AIM-100. Fractionation was judged using anti-HSP56 to indicate cytoplasmic extracts and anti-fibrillarin to indicate nuclear-enriched fractions. Nuclear and cytoplasmic-enriched fractions were normalized using the Bradford assay, and FLAG-p85α was immunoprecipitated from fractions containing equal total protein using an anti-FLAG antibody. Top panel: Immunoprecipitation of FLAG-p85α and co-immunoprecipitation of HA-ACK was assessed by Western blotting using anti-FLAG and anti-HA antibodies. Bottom panel: Expression of FLAG-p85α and HA-ACK along with active ACK levels was confirmed by Western blotting of whole cell lysate (WCL) samples collected prior to cell fractionation. ACK, activated Cdc42-associated kinase. […]

ACK–p85α complex = assay: Co-immunoprecipitation of ACK with p85α from nuclear-enriched fractions of HEK293T cells; conditions: AIM-100 8 μM, anti-FLAG immunoprecipitation
Method: Figure 7 Subcellular localization of the ACK–p85α complex. ACK and WT p85α were expressed alone and together in HEK293T cells. Where indicated, cells were treated with 8 μM AIM-100. Fractionation was judged using anti-HSP56 to indicate cytoplasmic extracts and anti-fibrillarin to indicate nuclear-enriched fractions. Nuclear and cytoplasmic-enriched fractions were normalized using the Bradford assay, and FLAG-p85α was immunoprecipitated from fractions containing equal total protein using an anti-FLAG antibody. Top panel: Immunoprecipitation of FLAG-p85α and co-immunoprecipitation of HA-ACK was assessed by Western blotting using anti-FLAG and anti-HA antibodies. Bottom panel: Expression of FLAG-p85α and HA-ACK along with active ACK levels was confirmed by Western blotting of whole cell lysate (WCL) samples collected prior to cell fractionation. ACK, activated Cdc42-associated kinase.
Small-scale co-immunoprecipitations were performed using 1 μg antibody cross-linked to Protein G Dynabeads (Life Technologies) with dimethyl pimelimidate. HEK293T cells were grown in 10 cm dishes to 70% confluence and then transfected for 40 h. […]
Cells were grown in 10 cm dishes to 70% confluence and then transfected for 40 h. […] Cytoplasmic and nuclear-enriched fractions were then either analyzed by SDS-PAGE gel directly or used in co-immunoprecipitation studies.

p85α–p85β complex = assay: Co-immunoprecipitation of V5-p85β with FLAG-p85α from HEK293T cells; conditions: serum starved (0.05% serum, 16 h), then EGF 100 ng/ml for 5 min or insulin 100 μg/ml for 90 min; anti-FLAG immunoprecipitation; Fig. 6B
Method: (§3) Figure 6 Dimerization of the regulatory subunits. HEK293T cells were transfected with control (GFP), FLAG-p50α (A) or FLAG-p85α (B) alone or with V5-p85β. Expression of the proteins in whole cell lysates (WCLs) is shown in the bottom panels. As indicated, cells were cultured in high serum (10% serum) or serum starved (0.05% serum) for 16 h and prior to lysis were either left untreated or stimulated with either EGF (100 ng/ml for 5 min) or insulin (100 μg/ml for 90 min). Cells were harvested 40 h after transfection and subject to immunoprecipitation using anti-FLAG antibodies. Co-precipitation of V5-p85β was assessed by Western blotting of immunoprecipitated samples using anti-V5 antibodies (top panels). C, WT p85β, WT p50α, and Y307D p50α (equivalent to Tyr607 in p85α) were expressed alone or co-expressed in HEK293T cells cultured in low serum. Samples of WCLs were analyzed by Western blotting using the antibodies indicated and are shown in lower panels. GAPDH is included as a loading control. FLAG-tagged p50α variants were immunoprecipitated from cell lysates using an anti-FLAG antibody, and the co-immunoprecipitation of p85β was assessed using an anti-V5 antibody (top panels). Results are representative of at least three independent experiments. […]

p50α–p85β complex = assay: Co-immunoprecipitation of V5-p85β with FLAG-p50α from HEK293T cells; conditions: serum starved (0.05% serum, 16 h), insulin 100 μg/ml for 90 min; anti-FLAG immunoprecipitation; Fig. 6A
Method: as §3

| Molecule | effect on proliferation of cells expressing WT p85β [1] | effect on proliferation of cells expressing Y599F p85β [2] | active ACK levels (pTyr284 ACK) (pTyr284 ACK) | p85α–ACK complex formation in the nucleus (ACK–p85α complex) | p85α–p85β complex formation (p85α–p85β complex) | p50α–p85β complex formation (p50α–p85β complex) |
| --- | --- | --- | --- | --- | --- | --- |
| c1ccc(-c2oc3ncnc(NC[C@@H]4CCCO4)c3c2-c2ccccc2)cc1 [AIM-100] | grew at a reduced rate | did not affect | reduced active ACK levels | did not block p85α–ACK complex formation |  |  |
| EGF: EGF (a known stimulator of ACK) (NSDSECPLSHDGYCLHDGVCMYIEALDKYACNCVVGYIGERCQYRDLKWWELR; UniProt P01133 971-1023, looked up) |  |  |  |  | increase |  |
| insulin: Tyr607 phosphorylation has been detected downstream of insulin stimulation |  |  |  |  | not enhanced | increased complex formation |
